Patent US20220348572A1, “BRIDGED HETEROCYCLYL-SUBSTITUTED PYRIMIDINE COMPOUND, PREPARATION METHOD THEREFOR, AND PHARMACEUTICAL USE THEREOF” (The National Institutes of Pharmaceutical R&D Co., Ltd., priority 2019, published 2022)

Experiments:
[1] = test system: IFN-2α-stimulated TYK2/JAK1-mediated pathway (pSTAT3); test: Inhibition of STAT3 signaling pathway of human whole blood (IFN-2α-induced pSTAT3, flow cytometry); format: cell-based
Experimental: Test Example 3: Inhibition Effect of the Compounds of the Present Invention on STAT3 Signaling Pathway of Human Whole Blood
Sample preparation: The compounds of the present invention and the control were dissolved in DMSO solvent respectively to formulate into 10 mM initial liquid. The maximum concentration of the compound was 10 μM, 3-fold dilution, 10 concentration gradients, and duplicate wells for each concentration gradient.
Experimental process: 20 μL of the compound of the present invention was added to a flow cytometer tube (BD, 352052) containing 180 μL anticoagulant sodium heparin. 20 μL PBS was added to the control. The sample was incubated at 37° C. for 30 min. 2 μL stimulating factor was added and then incubated at 37° C. for 20 min. 1 mL erythrocyte lysate was rapidly added, and the sample was repeatedly inverted 5-10 times or vortexed and then incubated at 37° C. for 10 min. The sample was centrifuged at 600 g for 6-8 min. The supernatant was discarded. The precipitate was vortexed until suspending. The cells were washed with 3 mL PBS and centrifuged at 600 g for 6-8 min. The supernatant was discarded. The precipitate was vortexed until suspending. 1 mL of membrane breaking solution was added, and the system was mixed gently, incubated on ice for 30 min, and centrifuged at 600 g for 6-8 min. The supernatant was discarded. The precipitate was vortexed until suspending. The cells were washed. 3 mL PBS was added. The system was centrifuged at 600 g for 6-8 min. The supernatant was discarded. The precipitate was vortexed untile suspending. The process was repeated twice. 100 μL PBS was added to each staining tube. IFN-2a was added for stimulation, and CD3 and pSTAT3 antibodies […] were added. The system was mixed well, protected from light and incubated at room temperature for 60 min. The cells were washed. 3 mL PBS was added. The system was centrifuged at 600 g for 6-8 min. The supernatant was discarded. The precipitate was vortexed until suspending. The precipitate was suspended in 150 μL in the dark for the flow cytometry analysis. The IC50 (half inhibitory concentration) of the compounds was obtained by using the following non-linear fitting equation:
Y=Bottom+(Top−Bottom)/(1+10^((Log IC50−X)*HillSlope));
X: Log value of the concentration of the compound;
Bottom: The minimum value, Top: The maximum value, HillSlope: Slope
The inhibition effect of by the compounds of the present invention on the IFN-2α-stimulated TYK2/JAK1-mediated pathway is shown in Table 3. IC50 value of 0-100 nM is shown as A, IC50 value of 100-300 nM is shown as B, IC50 value of 300-1000 nM is shown as C, IC50 value which is greater than 1000 nM is shown as D. NT means not tested.

AIA in rats = test: Pharmacodynamic study for AIA in rats (complete Freund's adjuvant, joint swelling score); format: in vivo, Lewis rats; settings: for Scoring value Day 1: Day 1, Mean ± SD; for Scoring value Day 1 / Scoring value Day 3 / Scoring value Day 7: AIA Lewis rats; for Scoring value Day 3: Day 3, Mean ± SD; for Scoring value Day 7: Day 7, Mean ± SD; for symptoms of arthritis induced by complete Freund's adjuvant (in words): AIA model in rats
Source text: Test Example 4: Pharmacodynamic Studies of the Compounds of Example 1, Example 1-b and Example 3 for AIA in Rats
Experimental material: complete Freund's adjuvant (Chondrex, 7027)
Experimental process: The in vivo efficacy of the compounds of the invention was investigated. 8-Week-old female Lewis rats were selected for modeling by complete Freund's adjuvant (J. of Immunology, 2010, 184: 5298-5307) and grouped after 12 days. 7 groups were divided: the model group, the Example 1 low dose group (3 mg/kg), the Example 1 high dose group (30 mg/kg), the Example 1-b low dose group (1 mg/kg), the Example 1-b high dose group (3 mg/kg), the Example 3 low dose group (3 mg/kg) and the Example 3 high dose group (30 mg/kg). The model group was given 0.5% CMC-Na and the rest groups were given the corresponding dose of the compound. The animals were scored according to the degree of joint swelling after 7 days of oral administration (Proc Soc Exp Bio Med 1962, 111: 544-547).

JAK1 kinase = biological target: T1, JAK1 kinase (Homo sapiens, UniProt P23458); test: In vitro inhibitory activity on JAK1 kinase (ADP-Glo Kinase Assay); format: biochemical; settings: JAK1 kinase 4 nM, 1 mM ATP
T1 construct: purchased Invitrogen PV4744
Outline: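 JAK1 (4 nM final) preincubated with compound 15 min at 25° C., then substrate mix (1 mM ATP, IRS1 0.05 mg/ml) added for 60 min at 25° C. ADP-Glo luminescence read-out; top concentration 10 μM, 3-fold, 10 points, duplicates; IC50 reported in ranged classes.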

T1 sequence (P23458 866-1154 limits assumed): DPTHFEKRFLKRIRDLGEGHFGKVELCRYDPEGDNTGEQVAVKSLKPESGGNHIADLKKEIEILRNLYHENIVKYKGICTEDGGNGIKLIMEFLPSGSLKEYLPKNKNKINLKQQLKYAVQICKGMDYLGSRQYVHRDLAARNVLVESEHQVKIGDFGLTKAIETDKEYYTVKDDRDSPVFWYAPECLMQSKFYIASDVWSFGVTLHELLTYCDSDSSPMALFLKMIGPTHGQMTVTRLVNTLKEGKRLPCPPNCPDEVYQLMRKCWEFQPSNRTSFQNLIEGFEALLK

SMILES	IC50 [1] [nM]	Scoring value Day 1 (AIA in rats; 3 mg/kg oral)	Scoring value Day 3 (AIA in rats; 3 mg/kg oral)	Scoring value Day 7 (AIA in rats; 3 mg/kg oral)	Scoring value Day 1 (AIA in rats; 30 mg/kg oral)	Scoring value Day 3 (AIA in rats; 30 mg/kg oral)	Scoring value Day 7 (AIA in rats; 30 mg/kg oral)	symptoms of arthritis induced by complete Freund's adjuvant (in words) (AIA in rats)	IC50 (JAK1 kinase) [nM]	Scoring value Day 1 (AIA in rats; 1 mg/kg oral)	Scoring value Day 3 (AIA in rats; 1 mg/kg oral)	Scoring value Day 7 (AIA in rats; 1 mg/kg oral)
Cn1cc(Nc2nccc(C3=CC4CCC(C3)N4C(=O)NCC(F)(F)F)n2)cn1 (stereo not drawn) [Compound 3, 3-(2-((1-methyl-1H-pyrazol-4-yl)amino)pyrimidin-4-yl)-N-(2,2,2-trifluoroethyl)-8-azabicyclo[3.2.1]oct-2-ene-8-carboxamide]	< 100	3.78 ± 1.92	3.78 ± 1.72	1.33 ± 0.87	3.44 ± 1.94	0.56 ± 0.53	0.00 ± 0.00	significantly inhibit	100 to 300	–	–	–
Cn1cc(Nc2nccc(C3=CC4CCC(C3)N4C(=O)[C@@H]3CC3(F)F)n2)cn1 (stereo partly drawn) [Compound 1, ((S)-2,2-difluorocyclopropyl)(3-(2-((1-methyl-1H-pyrazol-4-yl)amino)pyrimidin-4-yl)-8-azabicyclo[3.2.1]oct-2-en-8-yl)methanone]	< 100	3.78 ± 2.54	2.67 ± 1.22	0.22 ± 0.44	4.11 ± 2.52	0.44 ± 0.73	0.00 ± 0.00	significantly inhibit	< 100	–	–	–
Cn1cc(Nc2nccc(C3=C[C@H]4CC[C@@H](C3)N4C(=O)[C@@H]3CC3(F)F)n2)cn1 [Compound 1-b, ((S)-2,2-difluorocyclopropyl)((1R,5S)-3-(2-((1-methyl-1H-pyrazol-4-yl)amino)pyrimidin-4-yl)-8-azabicyclo[3.2.1]oct-2-en-8-yl)methanone]	< 100	3.30 ± 2.67	0.30 ± 0.95	1.50 ± 3.75	–	–	–	significantly inhibit	< 100	3.30 ± 2.67	3.10 ± 3.51	3.30 ± 3.71
